What was measured:
Escherichia coli 25922 = assay: Example 1: growth and colony color on plates surface-spread with chromogen; format: cell-based; conditions: E. coli 25922
Group B Strep. 12386 = assay: as above; format: cell-based; conditions: for Growth: Group B Strep 12386
[1] = tested on: Gardnerella vaginalis 14019; assay: as above; format: cell-based; conditions: Summary of Table I; G. vaginalis 14014
E. coli 25922 = assay: Example 2: effect of incubation conditions on colony color formation; format: cell-based, Escherichia coli; conditions: 0.004 g/plate
[2] = tested on: Aeromonas hydrophilia (aehy); assay: Example 3: colony color on chromogenic TSA II with 5% sheep blood (chromogen in medium); format: cell-based; conditions: for Colony Color: CO2, 21 h
[3] = tested on: Branhamella catarrhalis (brca); assay: as above; format: cell-based; conditions: for Colony Color: CO2, 21 h
Candida albicans (caal) = assay: as above; format: cell-based; conditions: for Colony Color: caal 10231, 24 h
[4] = tested on: Citrobacter freundii (cifr); assay: as above; format: cell-based; conditions: for Colony Color: CO2, 21 h
[5] = tested on: Entercoccus faecalis (enfa); assay: as above; format: cell-based
E. faecium (enfu) = assay: as above; format: cell-based
[6] = tested on: E. coli (non-O157) (esco); format: cell-based
[7] = tested on: Klebsiella pneumoniae (klpn); assay: Example 3: colony color on chromogenic TSA II with 5% sheep blood (chromogen in medium); format: cell-based; conditions: for Colony Color: CO2, 21 h
[8] = tested on: Pseudomonas aeruginosa (psae); assay: as above; format: cell-based; conditions: for Colony Color: CO2, 21 h
[9] = tested on: Serratia marcescens (sema); assay: as above; format: cell-based
[10] = tested on: Staphylococcus aureus (stau); assay: as above; format: cell-based
[11] = tested on: Staphylococcus Coag Neg (step); assay: as above; format: cell-based; conditions: 21 h
S. milleri (stmi) = assay: as above; format: cell-based; conditions: for Colony Color: stmi 6249, 21 h
S. pneumoniae (stpn) = assay: as above; format: cell-based
S pyogenes (stpy) = assay: as above; format: cell-based; conditions: for Colony Color: 21 h
cakr 34135 = assay: as above; format: cell-based; conditions: CO2, 21 h
milu 9341 = assay: as above; format: cell-based; conditions: CO2, 21 h
[12] = chromogenic TSA II with 5% Sheep Blood, 0.1 g/l, 3 strains tested
[13] = chromogenic TSA II with 5% Sheep Blood, 0.1 g/l, 2 strains tested
[14] = chromogenic TSA II with 5% Sheep Blood, 0.1 g/l, 1 strain tested
[15] = chromogenic TSA II with 5% Sheep Blood, 0.1 g/l, 6 strains tested

## OC[C@H]1O[C@@H](Oc2c[nH]c3ccc(Br)c(Cl)c23)[C@H](O)[C@@H](O)[C@H]1O [X-Gal, 5-Br-4-Cl-3-indolyl-β-D-galactopyranoside]
Escherichia coli 25922; Choc II
  Color: blue
Escherichia coli 25922; Summary of Table I
  Substrates Producing Color: X-Gal
Escherichia coli 25922; TSA II 5SB
  Color: blue
Escherichia coli 25922; TSA Plain
  Color: blue
Group B Strep. 12386; Summary of Table I, Group B Strep. 12386
  Substrates Producing Growth Inhibition: Slight inhib. w/ X-
Group B Strep. 12386; TSA II 5SB
  Growth: <
Group B Strep. 12386; TSA Plain
  Growth: <
[1]
  Substrates Producing Growth Inhibition: X-Gal
E. coli 25922; Chocolate II Agar, 24 h, air
  Colony Color: blue (d)
E. coli 25922; TSA II 5% Sheep Blood, 24 h, air
  Colony Color: blue (d)
E. coli 25922; TSA II 5% Sheep Blood, 5 d, ANA
  Colony Color: blue (d)
E. coli 25922; TSA II 5% Sheep Blood, 5 d, MA
  Colony Color: blue (d)
[2]; aehy 7965
  Colony Color: gb
[2]; aehy 7966
  Colony Color: gb
[2]; aehy 49847
  Colony Color: gb
[2]; [12]
  Colony Color (Summary): 0
[3]; brca 25238
  Colony Color: 0
[3]; brca 25240
  Colony Color: 0
[3]; [13]
  Colony Color (Summary): 0
Candida albicans (caal); CO2
  Colony Color: 0
Candida albicans (caal); air
  Colony Color: 0
Candida albicans (caal); [13]
  Colony Color (Summary): 0
[4]; [13]
  Colony Color (Summary): +
[4]; cifr 8454
  Colony Color: gb
[4]; cifr 33128
  Colony Color: gb
[5]; enfa 597, CO2, 21 h
  Colony Color: 0
[5]; enfa 597, air, 21 h
  Colony Color: 0
[5]; enfa 10741, CO2, 21 h
  Colony Color: gb
[5]; enfa 10741, air, 21 h
  Colony Color: lgb
[5]; enfa 12953, CO2, 21 h
  Colony Color: 0
[5]; enfa 12953, air, 21 h
  Colony Color: 0
[5]; enfa 14506, CO2, 21 h
  Colony Color: lgb
[5]; enfa 14506, air, 21 h
  Colony Color: 0
[5]; enfa 29212, CO2, 21 h
  Colony Color: gb
[5]; enfa 29212, CO2, 24 h
  Colony Color: vlgb
[5]; enfa 29212, air, 21 h
  Colony Color: gb
[5]; enfa 29212, air, 24 h
  Colony Color: vlgb
E. faecium (enfu); E. faecium (ATCC 49032)
  Colony Color: dark blue
E. faecium (enfu); [14]
  Colony Color (Summary): +
E. faecium (enfu); enfu 49032, CO2, 21 h
  Colony Color: gb
E. faecium (enfu); enfu 49032, air, 21 h
  Colony Color: db
[6]; [12]
  Colony Color (Summary): +
[6]; esco 33605, CO2, 21 h
  Colony Color: gb
[7]; [12]
  Colony Color (Summary): +
[7]; klpn 13883
  Colony Color: gb
[7]; klpn 33606
  Colony Color: gb
[8]; [12]
  Colony Color (Summary): 0
[8]; psae 9027
  Colony Color: 0
[8]; psae 15442
  Colony Color: 0
[8]; psae 33607
  Colony Color: 0
[9]; [14]
  Colony Color (Summary): +
[9]; sema 13880, CO2, 21 h
  Colony Color: gb
[10]; chromogenic TSA II with 5% Sheep Blood, 0.1 g/l, 5 strains tested
  Colony Color (Summary): 0
[10]; stau 1006, CO2, 21 h
  Colony Color: 0
[10]; stau 1007, CO2, 21 h
  Colony Color: 0
[10]; stau 1008, CO2, 21 h
  Colony Color: 0
[10]; stau 1009, CO2, 21 h
  Colony Color: 0
[10]; stau 25923, CO2, 24 h
  Colony Color: 0
[10]; stau 25923, air, 24 h
  Colony Color: 0
[11]; step 12228, CO2
  Colony Color: 0
[11]; step 12228, air
  Colony Color: 0
[11]; step cdc1, CO2
  Colony Color: 0
[11]; step cdc1, air
  Colony Color: 0
[11]; step cdc2, CO2
  Colony Color: 0
[11]; step cdc2, air
  Colony Color: 0
[11]; step cdc4, CO2
  Colony Color: 0
[11]; step cdc4, air
  Colony Color: 0
S. milleri (stmi); [13]
  Colony Color (Summary): 0
S. milleri (stmi); CO2
  Colony Color: 0
S. milleri (stmi); air
  Colony Color: 0
S. pneumoniae (stpn); [15]
  Colony Color (Summary): 0
S. pneumoniae (stpn); stpn 1259, CO2, 21 h
  Colony Color: 0
S. pneumoniae (stpn); stpn 1260, CO2, 21 h
  Colony Color: 0
S. pneumoniae (stpn); stpn 1628, CO2, 21 h
  Colony Color: 0
S. pneumoniae (stpn); stpn 6303, CO2, 24 h
  Colony Color: 0
S. pneumoniae (stpn); stpn 6303, air, 24 h
  Colony Color: 0
S. pneumoniae (stpn); stpn 6305, CO2, 24 h
  Colony Color: 0
S. pneumoniae (stpn); stpn 6305, air, 24 h
  Colony Color: 0
S pyogenes (stpy); [15]
  Colony Color (Summary): 0
S pyogenes (stpy); stpy 1027, CO2
  Colony Color: 0
S pyogenes (stpy); stpy 1028, CO2
  Colony Color: 0
S pyogenes (stpy); stpy 1029, CO2
  Colony Color: 0
S pyogenes (stpy); stpy 1030, CO2
  Colony Color: 0
S pyogenes (stpy); stpy 19615, CO2
  Colony Color: 0
S pyogenes (stpy); stpy 19615, air
  Colony Color: 0
S pyogenes (stpy); stpy 49117, CO2
  Colony Color: 0
S pyogenes (stpy); stpy 49117, air
  Colony Color: 0
S pyogenes (stpy); stpy 51339, CO2
  Colony Color: 0
S pyogenes (stpy); stpy 51339, air
  Colony Color: 0
Cakr 34135
  Colony Color: 0
Milu 9341
  Colony Color: 0
